The source of these data is US20090209536A1, “AMINOQUINAZOLINE CANNABINOID RECEPTOR MODULATORS FOR TREATMENT OF DISEASE” (KALYPSYS, INC., priority 2007, published 2009).

Some results are limits rather than exact numbers.

The target in assay [1] is T1, human cannabinoid receptor type 2 (Homo sapiens, UniProt P34972).
T1 construct: expressed in transfected cells; membrane preparation
Kind of assay: Human CB2 Radioligand Binding Assay. The following applies: competition with [3H] CP-55,940; membranes from stably transfected CHO CB2 cells; read-out: CB2 Ligand Binding Asssay EC50. A digest of the protocol:
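Test compounds (10 uM final, or dose-response) competed with [3H]CP-55,940, used at the Kd determined per membrane lot, for binding to stable human CB2-CHO membranes over 90 min at 30° C in pH 7.4 Tris/EGTA/MgCl2/BSA buffer. GF/C filtration then scintillation counting; 100 nM CP-55,940 defined 100% efficacy.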

Assay [2] concerns the target T2, human cannabinoid receptor type 1 (Homo sapiens, UniProt P21554).
T2 construct: purchased Perkin Elmer RBHCB1M; host or cells: HEK 293 EBNA cells
Kind of assay: Human CB1 Radioligand Binding Assay (basis of selectivity, CB2 vs. CB1). Conditions: CB1: HEK 293 EBNA cells expressing human CB1; CB2: CHO CB2 membranes. How it is done:
2. Human CB1 Radioligand Binding Assay
The incubation buffer was composed of 50 mM Tris-HCl pH 7.4, 2.5 mM EDTA, 5 mM MgCl2, 5.0 mg/ml fatty acid free BSA and the wash buffer was composed of 50 mM Tris-HCl pH 7.4, 2.5 mM EDTA, 5 mM MgCl2, 0.5 mg/ml fatty acid free BSA.

T2 sequence (P21554 whole entry): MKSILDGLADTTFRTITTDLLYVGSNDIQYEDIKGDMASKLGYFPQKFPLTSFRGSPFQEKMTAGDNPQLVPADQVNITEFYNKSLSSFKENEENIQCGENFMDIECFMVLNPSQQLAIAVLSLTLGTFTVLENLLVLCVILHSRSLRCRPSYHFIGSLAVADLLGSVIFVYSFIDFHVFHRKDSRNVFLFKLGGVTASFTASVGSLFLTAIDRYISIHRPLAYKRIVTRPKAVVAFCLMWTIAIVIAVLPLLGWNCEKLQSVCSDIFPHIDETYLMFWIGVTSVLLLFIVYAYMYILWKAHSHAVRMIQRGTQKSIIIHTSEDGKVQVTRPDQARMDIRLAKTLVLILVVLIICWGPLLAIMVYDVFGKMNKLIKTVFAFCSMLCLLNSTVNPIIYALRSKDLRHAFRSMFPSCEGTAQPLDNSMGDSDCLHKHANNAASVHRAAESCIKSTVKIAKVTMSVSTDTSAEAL
T1 sequence (P34972 whole entry): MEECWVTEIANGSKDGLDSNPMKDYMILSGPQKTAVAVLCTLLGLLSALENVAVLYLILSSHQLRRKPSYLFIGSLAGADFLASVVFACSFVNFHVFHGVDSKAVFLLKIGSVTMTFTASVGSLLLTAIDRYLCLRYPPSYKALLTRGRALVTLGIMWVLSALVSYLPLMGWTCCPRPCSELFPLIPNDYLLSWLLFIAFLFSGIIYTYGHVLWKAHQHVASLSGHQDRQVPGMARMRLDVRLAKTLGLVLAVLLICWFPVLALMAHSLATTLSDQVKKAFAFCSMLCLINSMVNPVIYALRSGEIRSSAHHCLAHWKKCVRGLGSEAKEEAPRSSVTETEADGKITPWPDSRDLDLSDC

Take `FC(F)(F)N1CCN(c2nc(-c3ccccc3Cl)nc3ccccc23)CC1` [Example 106, 2-(2-Chlorophenyl)-4-(4-(trifluoromethyl)piperazin-1-yl)quinazoline]: the EC50 in assay [1] is under 1 µM. Further, the “Selectivity, CB2 vs. CB1” value in assay [2] is recorded as “+ (+ indicates > 10−fold)”.

For the molecule `CCCCN1CCN(c2nc(-c3ccccc3Cl)nc3ccccc23)CC1` [Example 107], the EC50 in assay [1] was over 1 µM. In addition, the “Selectivity, CB2 vs. CB1” value in assay [2] was “− (− indicates ≦ 10−fold)”.

As for `CCCN1CCN(c2nc(-c3ccccc3Cl)nc3ccccc23)CC1` [Example 108, 2-(2-Chlorophenyl)-4-(4-propylpiperazin-1-yl)quinazoline], in assay [1], the EC50 is under 1 µM. For the same molecule, in assay [2], the “Selectivity, CB2 vs. CB1” value is “+ (+ indicates > 10−fold)”.

Consider `CN1CCN(c2nc(-c3ccc(C(C)(C)C)cc3)nc3ccccc23)CC1` [Example 109, 2-(4-tert-Butylphenyl)-4-(4-methylpiperazin-1-yl)quinazoline], for which, in assay [1], the EC50 is under 1 µM. Besides, the “Selectivity, CB2 vs. CB1” value in assay [2] is recorded as “+ (+ indicates > 10−fold)”.

In the case of `CC(C)(C)c1ccc(-c2nc(N3CCCC3)c3ccccc3n2)cc1` [Example 110, 2-(4-tert-Butylphenyl)-4-(pyrrolidin-1-yl)quinazoline], the EC50 in assay [1] is under 1 µM. Also, in assay [2], the “Selectivity, CB2 vs. CB1” value was “+ (+ indicates > 10−fold)”.

Turning to `CC(C)(C)c1ccc(-c2nc(N3CCCCC3)c3ccccc3n2)cc1` [Example 111, 2-(4-tert-Butylphenyl)-4-(piperidin-1-yl)quinazoline], the concentration for a half-maximal effect (EC50) in assay [1] was under 1 µM. For the same molecule, the “Selectivity, CB2 vs. CB1” value in assay [2] is reported as “− (− indicates ≦ 10−fold)”.

`CC(C)(C)c1ccc(-c2nc(N3CCOCC3)c3ccccc3n2)cc1` [Example 112, 4-(2-(4-tert-Butylphenyl)quinazolin-4-yl)morpholine]: the EC50 in assay [1] is under 1 µM. In addition, the “Selectivity, CB2 vs. CB1” value in assay [2] is given as “− (− indicates ≦ 10−fold)”.

In the case of `CN(Cc1ccccc1)c1nc(-c2ccc(C(C)(C)C)cc2)nc2ccccc12` [Example 113, N-Benzyl-2-(4-tert-butylphenyl)-N-methylquinazolin-4-amine], the EC50 in assay [1] is over 1 µM. In assay [2], the “Selectivity, CB2 vs. CB1” value is recorded as “− (− indicates ≦ 10−fold)”.

Regarding `CC(C)(C)c1ccc(-c2nc(N3CCSCC3)c3ccccc3n2)cc1` [Example 114, 2-(4-tert-Butylphenyl)-4-thiomorpholin-4-ylquinazoline], the EC50 in assay [1] is under 1 µM. In assay [2], the “Selectivity, CB2 vs. CB1” value is “+ (+ indicates > 10−fold)”.

Take `CC(C)(C)c1ccc(-c2nc(Nc3ccc(F)cc3F)c3ccccc3n2)cc1` [Example 115, 2-(4-tert-Butylphenyl)-N-(2,4-difluorophenyl)quinazolin-4-amine]: the EC50 in assay [1] is over 1 µM. For the same molecule, the “Selectivity, CB2 vs. CB1” value in assay [2] is “− (− indicates ≦ 10−fold)”.

Turning to `CN(c1ccc(F)cc1F)c1nc(-c2ccc(C(C)(C)C)cc2)nc2ccccc12` [Example 116, 2-(4-tert-Butylphenyl)-N-(2,4-difluorophenyl)-N-methylquinazolin-4-amine], the EC50 in assay [1] is over 1 µM. The “Selectivity, CB2 vs. CB1” value in assay [2] is on record as “− (− indicates ≦ 10−fold)”.

Consider `CC(C)(C)c1ccc(-c2nc(Nc3ccc(F)c(F)c3)c3ccccc3n2)cc1` [Example 117, 2-(4-tert-Butylphenyl)-N-(3,4-difluorophenyl)quinazolin-4-amine], for which, in assay [1], the EC50 was under 1 µM. Moreover, the “Selectivity, CB2 vs. CB1” value in assay [2] is on record as “− (− indicates ≦ 10−fold)”.

Take `CN(c1ccc(C(C)(C)C)cc1)c1nc(-c2ccc(C(C)(C)C)cc2)nc2ccccc12` [Example 119, N,2-Bis(4-tert-butylphenyl)-N-methylquinazolin-4-amine]: in assay [1], the EC50 was over 1 µM. In addition, in assay [2], the “Selectivity, CB2 vs. CB1” value is given as “− (− indicates ≦ 10−fold)”.

Take `CN(Cc1ccccc1)c1nc(-c2ccc(Cl)cc2)nc2ccccc12` [Example 120, N-Benzyl-2-(4-chlorophenyl)-N-methylquinazolin-4-amine]: in assay [1], the EC50 was over 1 µM. Also, the “Selectivity, CB2 vs. CB1” value in assay [2] is listed as “− (− indicates ≦ 10−fold)”.

Turning to `Clc1ccc(-c2nc(NCc3ccccc3)c3ccccc3n2)cc1` [Example 121, N-Benzyl-2-(4-chlorophenyl)quinazolin-4-amine], in assay [1], the EC50 was over 1 µM. Besides, the “Selectivity, CB2 vs. CB1” value in assay [2] is on record as “− (− indicates ≦ 10−fold)”.

Regarding `CN1CCN(c2nc(-c3ccc(Cl)cc3)nc3ccccc23)CC1` [Example 122, 2-(4-Chlorophenyl)-4-(4-methylpiperazin-1-yl)quinazoline], the EC50 in assay [1] was under 1 µM. Besides, in assay [2], the “Selectivity, CB2 vs. CB1” value is given as “+ (+ indicates > 10−fold)”.

On to `Clc1ccc(-c2nc(N3CCc4ccccc4C3)c3ccccc3n2)cc1` [Example 123, 2-(4-Chlorophenyl)-4-(3,4-dihydro-1H-isoquinolin-2-yl)quinazoline], for which the EC50 in assay [1] is over 1 µM. Further, the “Selectivity, CB2 vs. CB1” value in assay [2] is “− (− indicates ≦ 10−fold)”.

On to `CC1CCCCN1c1nc(-c2ccc(Cl)cc2)nc2ccccc12` (stereo not shown) [Example 124, 2-(4-Chlorophenyl)-4-(2-methylpiperidin-1-yl)quinazoline], for which the EC50 in assay [1] is over 1 µM. Further, the “Selectivity, CB2 vs. CB1” value in assay [2] is given as “− (− indicates ≦ 10−fold)”.

As to `CC1CCN(c2nc(-c3ccc(Cl)cc3)nc3ccccc23)CC1` [Example 125, 2-(4-Chlorophenyl)-4-(4-methylpiperidin-1-yl)quinazoline], the EC50 in assay [1] is under 1 µM. The “Selectivity, CB2 vs. CB1” value in assay [2] is reported as “− (− indicates ≦ 10−fold)”.

`Clc1ccc(-c2nc(N3CCOCC3)c3ccccc3n2)cc1` [Example 126, 4-(2-(4-Chlorophenyl)quinazolin-4-yl)morpholine]: the EC50 in assay [1] was under 1 µM. In addition, the “Selectivity, CB2 vs. CB1” value in assay [2] is given as “+ (+ indicates > 10−fold)”.

Consider `Clc1ccc(-c2nc(N3CCCCC3)c3ccccc3n2)cc1` [Example 127, 2-(4-Chlorophenyl)-4-(piperidin-1-yl)quinazoline], for which the EC50 in assay [1] is over 1 µM. Besides, the “Selectivity, CB2 vs. CB1” value in assay [2] is listed as “− (− indicates ≦ 10−fold)”.

For the molecule `Clc1ccc(-c2nc(N3CCCC3)c3ccccc3n2)cc1` [Example 128, 2-(4-Chlorophenyl)-4-(pyrrolidin-1-yl)quinazoline], the EC50 in assay [1] is under 1 µM. The “Selectivity, CB2 vs. CB1” value in assay [2] is “+ (+ indicates > 10−fold)”.

Take `CC(C)(C)c1ccc(-c2nc(NCC3CC3)c3ccccc3n2)cc1` [Example 130, 2-(4-tert-Butylphenyl)quinazolin-4-yl cyclopropylmethylamine]: the half-maximal effective concentration (EC50) in assay [1] is under 1 µM. Also, the “Selectivity, CB2 vs. CB1” value in assay [2] is “+ (+ indicates > 10−fold)”.

For the molecule `CN(c1nc(-c2ccc(C(C)(C)C)cc2)nc2ccccc12)C1CCCCC1` [Example 131, 2-(4-tert-Butylphenyl)quinazolin-4-yl cyclohexylmethylamine], in assay [1], the EC50 was under 1 µM. For the same molecule, in assay [2], the “Selectivity, CB2 vs. CB1” value is “− (− indicates ≦ 10−fold)”.

Regarding `CN(CC1CC1)c1nc(-c2ccc(C(C)(C)C)cc2)nc2ccccc12` [Example 132, 2-(4-tert-Butylphenyl)quinazolin-4-yl cyclopropylmethyl-N-methylamine], the EC50 in assay [1] was under 1 µM. For the same molecule, in assay [2], the “Selectivity, CB2 vs. CB1” value was “− (− indicates ≦ 10−fold)”.

Regarding `CC(C)(C)c1ccc(-c2nc(Nc3ccccc3Cl)c3ccccc3n2)cc1` [Example 133, 2-(4-tert-Butylphenyl)quinazolin-4-yl 2-chlorophenylamine], the EC50 in assay [1] was over 1 µM. For the same molecule, the “Selectivity, CB2 vs. CB1” value in assay [2] was “− (− indicates ≦ 10−fold)”.

Broadly, the EC50 is the midpoint of the concentration-response curve.
